Test results: patent publication US7279548B2, “Identification and isolation of novel polypeptides having WW domains and methods of using same” (Cytogen Corporation, priority 1996, dated 2007)
No end group written: not given here. *: point of attachment. Biotin = O=C1N[C@H]2[C@H](CS[C@H]2CCCCC(=O)*)N1

What was measured:
[1] = test system: twelve individual novel WW domains of WWP1, WWP2, WWP3 and WWP4; assay: ELISA based cross affinity mapping, whole panel of novel WW domains; assay type: binding, human; details: biotinylated peptide-streptavidin/alkaline phosphatase complex, GST fusion proteins
Method: (§1) The 16 day mouse embryo cDNA expression library was diluted 1:1000 in SM solution (100 mM NaCl, 8 mM MgSOv4, 50 mM Tris HCl pH 7.5, 0.01% gelatin). To a sterile test tube, 2 μl of diluted mouse embryo library, 100 μl of 10 mM CaCl2, 100 μl of 10 mM MgCl2 and 100 μl of BL21(DE3)pLysE bacterial cells (grown overnight) were added and incubated for 30 minutes at 37° C. The contents of the tube were mixed with 3 ml of 0.6% top agarose, containing […] chloramphenicol, and poured onto a 2xYT plate (90 mm diameter). For a large primary screen, 10–20 plates were prepared with 3×10^4 pfu per plate. After 6 hours incubation at 37° C., a nitrocellulose filter soaked in 10 mM isopropyl-β-D-thiogalactopyranoside (IPTG) was overlaid on each plate and incubated 3–6 hours at 37° C. Before the filters were removed from the plates, they were marked asymmetrically with India ink in a 18 gauge syringe needle. The plates were stored at 4° C. until ready for the secondary screen. The filters were washed with PBS (137 mM NaCl, 2.7 mM KCl, 4.3 mM Na2HPO4, 1.4 mM KH2PO4)-0.05% Triton X-100 three times at room temperature, 15 minutes each wash, and then placed in a plastic bag containing non-specific blocking solution (PBS-2% BSA) for one hour. In the meantime, 1 ml of 1 mM biotinylated peptide in PBS-0.1% Tween 20 was added to 20 ml of 1 mg/ml streptavidin-alkaline phosphatase (SA-AP) in PBS-0.1% Tween 20 and incubated at 4° C. for 30 minutes. […] Excess biotin-binding sites would then be blocked by addition of 500 pmol biotin. […] Ten μl of 0.1 mM biotin would then be added, and the solution incubated for an additional 15 min.
(§2) To determine the ligand preferences of the novel WW omain-containing clones described in Sections 6.1 and 6.1.1, as well as addressing the issue of whether peptides containing PPPPY (SEQ ID NO:3)-like motifs derived from a variety of proteins could also serve as recognition units and bind to these clones, a cross affinity mapping experiment was performed (FIGS. 15A–D). The peptides shown in FIGS. 15A–D were synthesized, biotinylated, complexed with streptavidin-alkaline phosphatase, and tested in an ELISA based assay for their ability to bind to the twelve individual novel WW domains of WWP1, WWP2, WWP3 and WWP4 which were expressed as GST fusion proteins. The ELISA based cross-affinity experiments were performed essentially as described by Sparks et al. (1996, Proc. Natl. Acad. Sci. 93:1540–1544) with the following modifications. Briefly, microtiter wells were coated with 1–5 μg of fusion protein in 100 mM NaHCO3, blocked with SuperBlock TBS (Pierce) and washed four times with PBS, 0.05% Tween 20. Specific peptide-streptavidin/alkaline phosphatase complexes were added as above and unbound complexes washed five times with PBS, 0.05% Tween 20. Following addition of PNP substrate (p-nitrophenyl phosphate, Kirkegard & Perry Labs), peptide binding was quantitated after 30 min. at O.D. 405 nm. Relative binding measurements from three independent determinations were assigned to a scale as follows: O.D. units 0–0.5=(−), 0.5–1.0=(+), 1.0–2.0=(++), 2.0–3.0=(+++), >3.0=(++++). Peptide binding to human Fyn and Lyn SH3 and SH2 domains was assessed by a filter binding assay (see Section 6.1 and Sparks et al., 1996, Proc. Natl. Acad. Sci 93:1540–1544). Peptide sequences used in cross-affinity experiments correspond to segments of the following genes: RasGap (Database accession # P20936), AP-2 (P05549), p53BP-2 (U09582), IL-6Rα (P22272), voltage-gated chloride channel CLCN5 (X91906), IL-2Rγ (D111086), RSV (D10652), HTLV-1 (D13784), β-dystroglycan (L19711), Formin (X53599), amiloride-sensitive epithelial Na^+ channel ENaCα (P37089), ENaCβ (X87159) and ENaCγ (X87160), muscarinic acetylcholine receptor M4 AChR (P08173), and c-Abl (P00522). Src and Crk SH3 binding peptide sequences were derived from a phage display random peptide library screen (Section 6.1 and Sparks et al., 1996, Proc. Natl. Acad. Sci. 93:1540–1544).

[2] = test system: WW domains of WWP4 expressed as GST fusion proteins; assay: ELISA based cross affinity mapping, WW domains of WWP4; assay type: binding, human; details: biotinylated peptide-streptavidin/alkaline phosphatase complex; GST fusion proteins; ELISA
Method: as §1, §2

Substance	binding to the novel WW domains (WWP1, WWP2, WWP3, WWP4 panel) [1]	binding to WW domains of WWP4 [2]
Biotin-SGSGYVQPPPPPYPGPM [WBP-2A]	bound to several individual WW domains to varying degrees	specifically bind
Biotin-SGSGPGTPPPPYTVGPGY [WBP-1]	bound to several individual WW domains to varying degrees	specifically bind
Biotin-SGSGPGTPYPPPPEFY [WBP-2B]	no binding activity	none of the WW domains of these proteins specifically bind
